Source: patent publication US20140066410A1, “INHIBITORS OF BROMODOMAINS AS MODULATORS OF GENE EXPRESSION” (ICAHN SCHOOL OF MEDICINE AT MOUNT SINAI, priority 2011, published 2014)
Entries after “also recorded” stand apart in the source; their conditions may differ.

How the values were obtained:
U20S cells = experiment: BRDU incorporation / cell cycle analysis; assay type: cell-based
Experimental: BRDU incorporation assay for cell cycle evaluation was performed in 96 well plates using calorimetric based kit from Calbiochem (Cat# QiA58). Hundred microliter of 1×10^5/ml cells were plated in DMEM media (Mediatech) with 10% fetal bovine serum (FBS). After 12 hours cells were treated with compounds ischemin and MS 119 (50 μM) with or without doxorubicin treatment (5 μM). The controls were DMSO and untreated cells. BRDU was added for 24 hours treatment. After 24 hours cells were fixed and treated with anti-BRDU antibody. After washings, the wells were incubated with peroxidase. After final wash, the color was developed using TMB as substrate and the reaction was stopped with stop solution and optical density was estimated at 450 nm.
DNA damage induced by doxorubicin leads to p53 stimulated cellular responses including cell cycle arrest, damage repair, and apoptosis. To determine the effect of ischemin on dividing U20S cells, U20S cells were treated with 5-bromo-2-deoxyuridine (BRDU) and the incorporated BRDU during in DNA synthesis was measured using an ELISA assay.

p53 [1] = experiment: Immunoblot of doxorubicin-treated primary neonatal rat cardiomyocytes; assay type: cell-based
Description: FIG. 4. Ischemin functions a cellular protective agent against myocardial ischemic stress. (A) TUNEL assay showing ischemin inhibition of doxorubicin-induced apoptosis in rat neonatal cardiomyocytes. (B) Evaluation of ischemin effects in U20S cells and cardiomyocytes. The immunoblots show down-regulation of doxorubicin-induced activated p53 in both cell types in the presence of ischemin, while levels of H2XS139p remained the same. (C) Inhibition of doxorubicin-induced caspase 3/7 activation in cardiomyocytes by ischemin.
The latter argues that ATM is active in presence of ischemin, which is consistent with our analysis using Western blots (FIG. 2B).

cardiomyocytes = experiment: TUNEL apoptosis assay in primary neonatal rat cardiomyocytes; assay type: cell-based
Experimental: The ability of ischemin to inhibit apoptosis in cardiomyocytes under DNA damage stress was evaluated. Primary neonatal rat cardiomyocytes were isolated and maintained in culture, then, treated with doxorubicin for 24 hours to induce DNA damage in the presence or absence of ischemin. The DNA damage induced by apoptosis was analyzed by the TUNEL (terminal deoxynucleotidyl transferase dUTP nick and end labeling) assay, in which a terminal deoxynucleotidyl transferase was used to identify 3′-OH of DNA generated by DNA fragmentation resulting from apoptosis, and then labels it with biotinylated dUTP. The latter was then detected with avidin-conjugated FITC for specific staining. Neonatal rat ventricular myocytes (NRVMs) were isolated by enzymatic dissociation of cardiac ventricle from 1-to-2-day-old Sprague-Dawley pups using the Worthington neonatal cardiomyocyte isolation system (Worthington). Briefly, the pups were anesthetized and their hearts were excised. The ventricular tissues were minced in ice cold HBSS and then digested with trypsin overnight at 4° C. followed by collagenase treatment for 45 min at 37° C. […] After treatment with compounds overnight and then doxorubicin for 24 hours, the intensities of luminecnce were read. […]

p53 binding to CBP = biological target: T1, p53 binding to CBP (Homo sapiens, UniProt Q92793); experiment: HA-CBP and Flag-p53 pull-down assay in HEK 293T cells; assay type: cell-based; settings: doxorubicin treatment
T1 construct: expressed in transfected cells; host or cells: HEK 293T
Experimental: HA-CBP and Flag-p53 were transfected into human embryonic kidney (HEK) 293T cells with recommended amount of Fugene 6 (Roche). After transfection, the HA-CBP and Flag-p53 co-transfected cells were treated with ischemin in the presence or absence of doxorubicin. To test the inhibitory potential of ischemin against CBP and p53 association, CBP was first immuno-precipitated by pulling-down with HA-agarose beads (Sigma) and its association with p53 was then determined with western blot using anti-Flag antibody (Sigma).
It was also investigated whether ischemin down-regulates p53 by blocking p53 binding to CBP. Haemaglutinin-tagged CBP(HA-CBP) and Flag-tagged p53 (Flag-p53) was overexpressed in human embryonic kidney (HEK) 293T cells.

CBP BRD = CBP BRD (Homo sapiens, UniProt Q92793); experiment: Bromodomain binding affinity (tryptophan fluorescence binding assay); settings: over PCAF, BRD41, BAZ1B and BAZ2B
Experimental: Monitoring change of intrinsic tryptophan fluorescence of a protein induced by ligand binding can be used to determine ligand binding affinity (KD). This assay was used to assess ligand binding to the CBP BRD and ischemin binding to the BRDs from other transcription proteins as follows. The chemical ligands were prepared at 500-850 μM in the PBS buffer. Their serial dilutions by a factor of 1.5 in a 384-wells black plate were carried out using a Tecan EVO200 liquid handler down to a concentration of 0.5 nM. Protein was added to the compounds to a final concentration in each well of 5 μM. Tryptophan fluorescence of the protein was measured (with excitation set at 280 nm, emission at 350 nm) on a Tecan Safire2 reader. Inner filter correction was introduced to take into account the possible intrinsic fluorescence of the compound. […] KD was calculated based on the curve fitting.

p53 [2] = experiment: p21 luciferase assay (p53 inhibition) in U20S cells upon doxorubicin; assay type: cell-based
Experimental: U20S Cells were transfected with p21 luciferase (1 μg) and renilla luciferase (100 ng) vectors in 6 well plate format using Fugene 6 (Roche). Briefly, total of 1.1 micrograms of vector was incubated with […] of Fugene 6 reagent for 30 min. After 3-4 hours of transfection, cell were treated with compounds for overnight, and then exposed to 300 nanogram of doxorubicin for next 24 hours. In these experiments, DMSO, transfected cells with empty vector and cell without doxorubicin were used as controls. DMSO concentration is maintained at 0.01%. Transfected cells with doxorubicin treatment were used as positive control. The luciferase activity was estimated by following the manufacturer's instruction (Promega) in a luminometer. […] The inhibitory activity (IC50) of a small molecule on p21 luciferase activity was obtained from the average of three biological replicates using PRISM software.

Sequence of CBP BRD (Q92793 1085-1192 limits assumed): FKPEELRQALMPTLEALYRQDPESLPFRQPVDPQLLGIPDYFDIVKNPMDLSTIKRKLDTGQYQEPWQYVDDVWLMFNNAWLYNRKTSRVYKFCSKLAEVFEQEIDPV
T1 sequence (Q92793 whole entry): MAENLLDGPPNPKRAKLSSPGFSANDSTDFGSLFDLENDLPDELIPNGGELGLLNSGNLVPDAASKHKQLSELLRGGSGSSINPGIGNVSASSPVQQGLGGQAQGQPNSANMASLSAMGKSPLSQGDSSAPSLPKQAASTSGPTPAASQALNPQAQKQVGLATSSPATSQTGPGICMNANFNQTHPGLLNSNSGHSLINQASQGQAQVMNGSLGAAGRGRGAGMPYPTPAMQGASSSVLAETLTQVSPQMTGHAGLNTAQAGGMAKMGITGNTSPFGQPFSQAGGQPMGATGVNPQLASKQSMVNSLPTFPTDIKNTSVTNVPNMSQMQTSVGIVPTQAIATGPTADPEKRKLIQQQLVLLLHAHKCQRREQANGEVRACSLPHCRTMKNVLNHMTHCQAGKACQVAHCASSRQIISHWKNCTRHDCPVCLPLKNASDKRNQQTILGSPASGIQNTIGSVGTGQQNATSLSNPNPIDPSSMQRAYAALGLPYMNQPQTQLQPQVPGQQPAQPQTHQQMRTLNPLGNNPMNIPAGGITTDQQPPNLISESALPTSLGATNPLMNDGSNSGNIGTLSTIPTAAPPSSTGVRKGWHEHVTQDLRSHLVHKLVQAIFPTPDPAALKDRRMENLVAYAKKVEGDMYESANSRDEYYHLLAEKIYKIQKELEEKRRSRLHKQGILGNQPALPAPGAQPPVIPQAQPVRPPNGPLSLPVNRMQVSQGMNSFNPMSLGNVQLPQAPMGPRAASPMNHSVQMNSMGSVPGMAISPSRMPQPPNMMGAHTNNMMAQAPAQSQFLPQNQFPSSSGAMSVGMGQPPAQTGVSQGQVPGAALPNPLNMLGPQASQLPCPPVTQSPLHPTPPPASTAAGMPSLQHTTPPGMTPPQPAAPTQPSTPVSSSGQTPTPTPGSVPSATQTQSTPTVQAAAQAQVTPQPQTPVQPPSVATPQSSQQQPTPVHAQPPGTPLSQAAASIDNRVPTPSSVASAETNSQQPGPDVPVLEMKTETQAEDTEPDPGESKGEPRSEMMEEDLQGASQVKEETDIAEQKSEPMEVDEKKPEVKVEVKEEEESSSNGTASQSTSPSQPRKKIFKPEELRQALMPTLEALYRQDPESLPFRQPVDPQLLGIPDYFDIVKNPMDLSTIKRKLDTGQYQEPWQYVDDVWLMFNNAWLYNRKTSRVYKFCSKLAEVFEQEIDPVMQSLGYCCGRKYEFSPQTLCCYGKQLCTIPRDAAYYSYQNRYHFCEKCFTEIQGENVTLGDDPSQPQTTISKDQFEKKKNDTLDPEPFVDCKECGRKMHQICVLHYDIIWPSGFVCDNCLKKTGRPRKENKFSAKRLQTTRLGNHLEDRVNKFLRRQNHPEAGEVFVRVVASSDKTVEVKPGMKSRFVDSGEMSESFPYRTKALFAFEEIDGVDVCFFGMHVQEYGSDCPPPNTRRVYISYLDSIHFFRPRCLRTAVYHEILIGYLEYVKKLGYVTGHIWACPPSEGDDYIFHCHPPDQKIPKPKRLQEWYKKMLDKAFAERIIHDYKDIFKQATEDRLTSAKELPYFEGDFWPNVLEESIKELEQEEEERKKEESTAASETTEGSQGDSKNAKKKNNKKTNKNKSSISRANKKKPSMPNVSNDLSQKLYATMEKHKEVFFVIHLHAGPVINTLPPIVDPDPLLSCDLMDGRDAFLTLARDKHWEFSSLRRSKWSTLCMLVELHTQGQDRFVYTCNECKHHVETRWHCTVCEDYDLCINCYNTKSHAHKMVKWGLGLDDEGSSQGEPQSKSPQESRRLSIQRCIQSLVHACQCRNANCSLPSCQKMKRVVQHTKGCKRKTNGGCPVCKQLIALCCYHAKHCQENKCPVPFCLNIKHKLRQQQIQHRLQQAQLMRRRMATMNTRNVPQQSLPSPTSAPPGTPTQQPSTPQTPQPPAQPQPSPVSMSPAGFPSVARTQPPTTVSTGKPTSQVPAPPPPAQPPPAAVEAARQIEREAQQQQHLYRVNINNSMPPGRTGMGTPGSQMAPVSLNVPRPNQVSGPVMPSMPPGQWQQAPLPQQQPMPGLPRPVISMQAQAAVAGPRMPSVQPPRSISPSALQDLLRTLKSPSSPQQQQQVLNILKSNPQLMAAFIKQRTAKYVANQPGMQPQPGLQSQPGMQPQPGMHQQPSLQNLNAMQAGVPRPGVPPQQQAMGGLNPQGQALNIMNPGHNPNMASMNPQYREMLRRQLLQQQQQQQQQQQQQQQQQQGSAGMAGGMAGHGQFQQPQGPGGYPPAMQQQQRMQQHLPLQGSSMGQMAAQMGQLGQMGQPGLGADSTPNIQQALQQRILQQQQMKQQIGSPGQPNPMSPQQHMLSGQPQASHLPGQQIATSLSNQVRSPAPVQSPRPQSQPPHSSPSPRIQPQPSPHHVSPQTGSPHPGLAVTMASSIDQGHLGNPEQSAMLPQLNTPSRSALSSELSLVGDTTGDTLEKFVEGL

## Cc1cc(/N=N/c2cc(S(=O)(=O)O)c(C)cc2C)c(N)cc1O [Ischemin/MS120, 5-(2-amino-4-hydroxy-5-methylphenylazo)-2,4-dimethylbenzenesulfonic acid]
U20S cells; 50 μM
  Toxicity to U20S cells: not toxic
U20S cells; compound 50 μM, doxorubicin 5 μM, U20S cells
  Prevention of doxorubicin-induced cell cycle arrest (decrease of BRDU incorporation): almost completely prevented; also recorded: prevents a doxorubicin-induced decrease of BRDU incorporation
p53 [1]
  Doxorubicin induced p53 activation: able to inhibit
  H2AX phosphorylation at Ser139: did not alter
cardiomyocytes; ischemin alone
  Toxicity in cardiomyocytes: no toxicity
cardiomyocytes; neonatal rat cardiomyocytes, doxorubicin 24 hours
  Inhibition of doxorubicin-induced apoptosis (TUNEL): effectively inhibit
p53 binding to CBP
  Inhibition of p53 binding to CBP: inhibiting in a dose-dependent manner
CBP BRD
  Selectivity for the CBP BRD over other human BRDs: up to five-fold selectivity
p53 [2]; U20S cells, FIG. 1A
  Inhibition of p21 luciferase activity: Dose-dependent inhibition
p53 [2]; compared with lead / ortho-methyl analogs
  Ability to inhibit p53-dependent p21 luciferase activity / p21 expression (SAR, words): nearly completely suppresses
p53 [2]; compounds at 50 μM, doxorubicin-treated U20S cells
  inhibition at 50 µM: 104%
